Assay results taken from article PMC9873984, “Membrane cholesterol regulates inhibition and substrate transport by the glycine transporter, GlyT2” (Life Science Alliance, 2023).
Changes are numbered by the printed parent chain.

Columns and labels:
GlyT2 F515W mutant = biological target: T1, GlyT2 F515W mutant (Homo sapiens, UniProt Q9Y345, F515W); test: Inhibitor washout time course (reversibility); type: cell-based; design: expressed in transfected cells; host or cells: Xenopus laevis oocytes injected with mutant RNA (pOTV vector); conditions: for Half-life (transport current recovery) / Recovery at 30 Min: washout after 4 min IC50 concentration
T1 sequence (Q9Y345 1-797 F515W): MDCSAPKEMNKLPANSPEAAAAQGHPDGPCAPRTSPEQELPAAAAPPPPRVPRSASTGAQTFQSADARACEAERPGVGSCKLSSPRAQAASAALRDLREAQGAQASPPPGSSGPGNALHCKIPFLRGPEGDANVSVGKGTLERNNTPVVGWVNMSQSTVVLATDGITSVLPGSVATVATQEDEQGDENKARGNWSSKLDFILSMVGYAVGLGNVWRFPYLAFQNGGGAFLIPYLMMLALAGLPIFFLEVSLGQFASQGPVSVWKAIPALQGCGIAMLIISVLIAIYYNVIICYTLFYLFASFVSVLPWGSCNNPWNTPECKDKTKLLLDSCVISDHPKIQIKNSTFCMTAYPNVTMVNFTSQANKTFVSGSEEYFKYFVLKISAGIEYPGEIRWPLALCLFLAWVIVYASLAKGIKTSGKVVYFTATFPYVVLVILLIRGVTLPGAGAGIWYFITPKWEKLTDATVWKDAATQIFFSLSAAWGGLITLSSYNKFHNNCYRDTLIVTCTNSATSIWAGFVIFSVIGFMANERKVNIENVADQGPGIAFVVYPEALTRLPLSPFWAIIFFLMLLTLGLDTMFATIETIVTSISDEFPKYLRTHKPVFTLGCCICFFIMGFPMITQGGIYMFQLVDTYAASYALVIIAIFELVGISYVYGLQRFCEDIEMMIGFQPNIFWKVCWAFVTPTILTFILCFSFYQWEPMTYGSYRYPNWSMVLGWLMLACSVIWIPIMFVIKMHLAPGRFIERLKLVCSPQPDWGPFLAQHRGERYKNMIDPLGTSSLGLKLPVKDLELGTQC
Description: (§1) Reversibility of GlyT2 inhibitors was determined by applying an EC50 concentration of glycine followed by co-application of the inhibitor at an IC50 concentration once a stable current had been achieved. Inhibitors were applied for 4 min as this was sufficient time to produce substantial inhibition for each compound and allowed for their direct comparison. At the conclusion of 4 min (time 0), ND96 buffer was perfused through the recording chamber to wash the oocyte. […] Transport currents were normalized to glycine currents in the absence of inhibitor and converted to % recovery values via Y=It−It=0/Imax−It=0, where Y is % recovery, I is current in nA, Imax is the maximal current produced by the glycine EC50, and t is time in minutes. Washout kinetics were then determined by fitting % recovery values to the first-order rate equation: Y=(Y0−Plateau).e^(−Kt)+Plateau, where Y is the % recovery, Y0 is the point, which crosses the Y-axis (constrained to 0) and increases to the plateau (constrained to between 0 and 100), K is the rate constant (1/t), and t is time in minutes. […] Because of the slowly […] nature of the inhibitors, washout time courses involving cyclodextrin treatment could not be performed on the same cell. […] As these experiments could not occur on the same cell, differences in half-life and maximal recovery were analysed via an unpaired two-tailed t test.

GlyT2 Y430F mutant = biological target: T2, GlyT2 Y430F mutant (Homo sapiens, UniProt Q9Y345, Y430F); test: Inhibitor washout time course (reversibility); type: cell-based; design: expressed in transfected cells; host or cells: Xenopus laevis oocytes injected with mutant RNA (pOTV vector)
T2 sequence (Q9Y345 1-797 Y430F): T1 sequence (Q9Y345 1-797 F515W) with Y430F, W515F
Description: as §1

[1] = washout after 4 min IC50 concentration

Increase in recovery of current 30 min after application, vs WT (GlyT2 F515W mutant; F515W) | Half-life (transport current recovery) (GlyT2 F515W mutant; F515W) | Recovery at 30 Min (GlyT2 F515W mutant; F515W) | Reduction in recovery of current 30 min after application, vs WT (GlyT2 Y430F mutant) | Recovery at 30 Min (GlyT2 Y430F mutant; [1]) | Half-life (transport current recovery) (GlyT2 Y430F mutant; [1]) | Increase of recovery at 30 min compared to WT (GlyT2 F515W mutant; F515W vs WT) | Increase in recovery after 30 min, vs WT (GlyT2 Y430F mutant) | SMILES
19.0% | 2.0 ± 0.2 min | 70.1 ± 1.9 % | 24.5% | 26.6 ± 2.3 % | – | – | – | CCCCCCCC/C=C\CCCCCCCC(=O)N[C@@H](CC(C)C)C(=O)O [Oleoyl-L-Leucine, oleoyl-L-leucine]
– | No Recovery | No Recovery | – | No Recovery | No Recovery | – | – | CCCCCCCC/C=C\CCCCCCCC(=O)N[C@@H](Cc1c[nH]c2ccccc12)C(=O)O [Oleoyl-L-Tryptophan, oleoyl-L-tryptophan]
– | – | 60.1% | – | 24.7% | – | 1.3 fold | – | CCCCCCCC/C=C\CCCCCCCC(=O)O[C@H](CC(=O)[O-])C[N+](C)(C)C [Oleoyl-L-Carnitine, oleoyl-L-carnitine]
– | – | 57.8 ± 4.1% | – | 68.5 ± 2.1 % | – | – | 13.4% | CCCCCCCC/C=C\CCCCCCCC(=O)N[C@@H](CCCCN)C(=O)O [Oleoyl-L-Lysine, oleoyl-L-lysine]
